Experiment [1] deals with T1, human Kv1.3 voltage-gated K+ channel (Homo sapiens, UniProt P22001).
T1 construct: host or cells: CHO-DUKX
Nature of the experiment: cell-based. The conditions noted are these: inhibition of thallium flux, CHO-DUKX cells with human Kv1.3; read-out: IC50.

For the next experiment, the target named is Rat whole blood (Rattus norvegicus, UniProt P15384).
[2] abbreviates: inhibition of IL-17A release, thapsigargin, 24 Hr, at least 2 replicates.

Read-outs that look alike come from different tables or passages of the source. Bridge positions count the residues as written; N and C are the ends. Square brackets hold non-standard residues; d marks the D form. Peptide text beside a SMILES is read from it. Phe(4-NO2) = N[C@@H](Cc1ccc([N+](=O)[O-])cc1)C(=O)O; Phe(4-Me) = Cc1ccc(C[C@H](N)C(=O)O)cc1; hLys = NCCCCC[C@H](N)C(=O)O; Nle = CCCC[C@H](N)C(=O)O; Abu = CC[C@H](N)C(=O)O

T1 sequence (P22001 whole entry): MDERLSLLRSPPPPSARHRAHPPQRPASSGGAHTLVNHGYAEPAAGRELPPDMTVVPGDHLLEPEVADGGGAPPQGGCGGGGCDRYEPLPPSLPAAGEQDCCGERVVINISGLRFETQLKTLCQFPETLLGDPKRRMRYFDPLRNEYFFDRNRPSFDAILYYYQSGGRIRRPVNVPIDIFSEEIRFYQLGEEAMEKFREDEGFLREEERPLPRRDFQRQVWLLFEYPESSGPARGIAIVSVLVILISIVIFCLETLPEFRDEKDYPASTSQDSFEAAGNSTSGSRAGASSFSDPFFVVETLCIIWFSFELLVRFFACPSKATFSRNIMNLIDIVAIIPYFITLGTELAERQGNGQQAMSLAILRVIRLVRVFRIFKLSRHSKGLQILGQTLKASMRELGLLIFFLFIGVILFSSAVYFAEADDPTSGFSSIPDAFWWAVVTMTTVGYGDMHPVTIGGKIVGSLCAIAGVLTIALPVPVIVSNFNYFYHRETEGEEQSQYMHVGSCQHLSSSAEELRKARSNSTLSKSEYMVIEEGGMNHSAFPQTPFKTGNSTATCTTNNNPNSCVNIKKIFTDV
Chain of Rat whole blood (P15384 whole entry): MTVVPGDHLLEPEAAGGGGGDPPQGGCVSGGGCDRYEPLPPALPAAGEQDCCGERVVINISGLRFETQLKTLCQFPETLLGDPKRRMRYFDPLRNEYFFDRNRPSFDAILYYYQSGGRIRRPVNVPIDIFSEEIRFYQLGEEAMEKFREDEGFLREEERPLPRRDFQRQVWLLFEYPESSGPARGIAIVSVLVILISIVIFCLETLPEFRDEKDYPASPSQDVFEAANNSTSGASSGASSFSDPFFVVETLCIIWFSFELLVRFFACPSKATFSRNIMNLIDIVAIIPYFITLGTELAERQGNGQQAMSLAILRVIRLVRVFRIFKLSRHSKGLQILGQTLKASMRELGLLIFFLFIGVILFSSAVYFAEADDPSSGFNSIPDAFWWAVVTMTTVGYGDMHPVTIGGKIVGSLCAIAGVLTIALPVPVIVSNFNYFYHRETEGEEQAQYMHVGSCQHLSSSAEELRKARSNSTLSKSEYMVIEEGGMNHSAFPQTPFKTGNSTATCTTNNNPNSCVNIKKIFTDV

Usually IC50 stands for the midpoint of a concentration-inhibition curve. In the case of `CCCC[C@H](NC(=O)[C@H](CC(=O)O)NC(=O)[C@H](CCCC)NC(=O)[C@@H](N)CO)C(=O)N[C@@H](CCCNC(=N)N)C(=O)N[C@H]1CSSC[C@@H]2NC(=O)[C@H](CCCCN)NC(=O)CNC(=O)[C@H](Cc3ccccc3)NC(=O)[C@H]([C@@H](C)CC)NC(=O)[C@H](CO)NC(=O)CNC(=O)[C@H]([C@@H](C)CC)NC(=O)[C@H](C)NC(=O)[C@H](CCCCN)NC(=O)[C@H](CC(C)C)NC(=O)[C@@H]3CSSC[C@@H](C(=O)N[C@@H](Cc4ccc(C)cc4)C(=O)N4CCC[C@H]4C(=O)N[C@@H](CCCNC(=N)N)C(N)=O)NC(=O)[C@H](CCCCN)NC(=O)[C@H](CSSC[C@H](NC(=O)[C@H](CCC(=O)O)NC(=O)[C@H](C(C)C)NC(=O)[C@H](CO)NC(=O)[C@H](C)NC(=O)[C@H](CO)NC1=O)C(=O)N[C@@H](CCCCN)C(=O)N[C@@H](CCC(N)=O)C(=O)N[C@@H](CCCCN)C(=O)N3)NC(=O)[C@H](CCCCN)NC(=O)[C@H](CCCCN)NC(=O)[C@H](CC(N)=O)NC(=O)[C@H](CCSC)NC2=O` [Compound 93] (H-S[Nle]D[Nle]RCSASVECKQKCLKAIGSIFGKCMNKKCKC[Phe(4-Me)]PR-NH2; disulfide 6-27, 12-32, 16-34), the IC50 in experiment [1] was found to be 0.13 nM; at Rat whole blood (setting [2]), 0.54 nM.

With `CCCC[C@@H]1NC(=O)[C@@H]2CSSC[C@H](NC(=O)[C@H](CCCNC(=N)N)NC(=O)[C@H](CCC(=O)O)NC(=O)[C@H](CC(=O)O)NC(=O)[C@@H](NC(=O)[C@@H]3CCCN3)[C@@H](C)CC)C(=O)N[C@@H](CO)C(=O)N[C@@H](C)C(=O)N[C@@H](CO)C(=O)N[C@@H](C(C)C)C(=O)N[C@@H](CCC(=O)O)C(=O)N[C@H]3CSSC[C@H](NC(=O)[C@H](CCCCN)NC(=O)[C@H](CCCCN)NC(=O)[C@H](CC(N)=O)NC1=O)C(=O)N[C@@H](CCCCN)C(=O)N[C@H](C(=O)N[C@@H](Cc1ccc(O)cc1)C(=O)N1CCC[C@H]1C(=O)N[C@@H](CCCNC(=N)N)C(=O)O)CSSC[C@H](NC(=O)[C@H](CCCCN)NC(=O)[C@H](CCC(N)=O)NC(=O)[C@H](CCCCN)NC3=O)C(=O)N[C@@H](CC(C)C)C(=O)N[C@@H](C)C(=O)N[C@@H](C)C(=O)N[C@@H]([C@@H](C)CC)C(=O)NCC(=O)N[C@@H](CO)C(=O)N[C@@H]([C@@H](C)CC)C(=O)N[C@@H](Cc1ccccc1)C(=O)NCC(=O)N[C@@H](CCCCN)C(=O)N2` [Compound 100] (H-PIDERCSASVECKQKCLAAIGSIFGKC[Nle]NKKCKCYPR-OH; disulfide 6-27, 12-32, 16-34), the IC50 in experiment [1] is 0.85 nM; on Rat whole blood, not above 1 nM; against Rat whole blood (setting [2]), 0.87 nM.

Turning to `CCCC[C@H](NC(=O)[C@H](CC(=O)O)NC(=O)[C@H](CCCC)NC(=O)[C@@H](N)CO)C(=O)N[C@@H](CCCNC(=N)N)C(=O)N[C@H]1CSSC[C@@H]2NC(=O)[C@H](CCCCCN)NC(=O)CNC(=O)[C@H](Cc3ccccc3)NC(=O)[C@H]([C@@H](C)CC)NC(=O)[C@H](CO)NC(=O)CNC(=O)[C@H]([C@@H](C)CC)NC(=O)[C@H](C)NC(=O)[C@H](CCCCN)NC(=O)[C@H](CC(C)C)NC(=O)[C@@H]3CSSC[C@@H](C(=O)N[C@@H](Cc4ccc(O)cc4)C(=O)N4CCC[C@H]4C(=O)N[C@@H](CCCNC(=N)N)C(N)=O)NC(=O)[C@H](CCCCN)NC(=O)[C@H](CSSC[C@H](NC(=O)[C@H](CCC(=O)O)NC(=O)[C@H](C(C)C)NC(=O)[C@H](CO)NC(=O)[C@H](C)NC(=O)[C@H](CO)NC1=O)C(=O)N[C@@H](CCCCN)C(=O)N[C@@H](CCC(N)=O)C(=O)N[C@@H](CCCCN)C(=O)N3)NC(=O)[C@H](CCCCN)NC(=O)[C@H](CCCCN)NC(=O)[C@H](CC(N)=O)NC(=O)[C@H](CCSC)NC2=O` [Compound 69] (H-S[Nle]D[Nle]RCSASVECKQKCLKAIGSIFG[hLys]CMNKKCKCYPR-NH2; disulfide 6-27, 12-32, 16-34), the IC50 came to 0.58 nM in experiment [1] and 2.7 nM against Rat whole blood (setting [2]).

Consider `CCCC[C@H](NC(=O)[C@H](CC(=O)O)NC(=O)[C@H](CCCC)NC(=O)[C@@H](N)CO)C(=O)N[C@@H](CCCNC(=N)N)C(=O)N[C@H]1CSSC[C@@H]2NC(=O)[C@H](CCCCN)NC(=O)CNC(=O)[C@H](Cc3ccccc3)NC(=O)[C@H]([C@@H](C)CC)NC(=O)[C@H](CO)NC(=O)CNC(=O)[C@H]([C@@H](C)CC)NC(=O)[C@H](C)NC(=O)[C@H](CCCCN)NC(=O)[C@H](CC(C)C)NC(=O)[C@@H]3CSSC[C@@H](C(=O)N[C@@H](Cc4ccc(O)cc4)C(=O)N4CCC[C@H]4C(=O)N[C@@H](CCCNC(=N)N)C(N)=O)NC(=O)[C@H](CCCCN)NC(=O)[C@H](CSSC[C@H](NC(=O)[C@H](CCC(=O)O)NC(=O)[C@H](C(C)C)NC(=O)[C@H](CO)NC(=O)[C@H](C)NC(=O)[C@H](CO)NC1=O)C(=O)N[C@@H](C(C)C)C(=O)N[C@@H](CCC(N)=O)C(=O)N[C@@H](CCCCN)C(=O)N3)NC(=O)[C@H](CCCCN)NC(=O)[C@H](CCCCN)NC(=O)[C@H](CC(N)=O)NC(=O)[C@H](CCSC)NC2=O` [Compound 72] (H-S[Nle]D[Nle]RCSASVECVQKCLKAIGSIFGKCMNKKCKCYPR-NH2; disulfide 6-27, 12-32, 16-34), for which the IC50 was 0.19 nM in experiment [1], not above 1 nM at Rat whole blood and 0.47 nM on Rat whole blood (setting [2]).

Consider `CCCC[C@H](NC(=O)[C@H](CC(=O)O)NC(=O)[C@H](CCCC)NC(=O)[C@@H](N)CO)C(=O)N[C@@H](CCCNC(=N)N)C(=O)N[C@H]1CSSC[C@@H]2NC(=O)[C@H](CCCCN)NC(=O)CNC(=O)[C@H](Cc3ccccc3)NC(=O)[C@H]([C@@H](C)CC)NC(=O)[C@H](CO)NC(=O)CNC(=O)[C@H]([C@@H](C)CC)NC(=O)[C@H](C)NC(=O)[C@H](CCCCN)NC(=O)[C@H](CC(C)C)NC(=O)[C@@H]3CSSC[C@@H](C(=O)N[C@@H](Cc4ccc([N+](=O)[O-])cc4)C(=O)N4CCC[C@H]4C(=O)N[C@@H](CCCNC(=N)N)C(N)=O)NC(=O)[C@H](CCCCN)NC(=O)[C@H](CSSC[C@H](NC(=O)[C@H](CCC(=O)O)NC(=O)[C@H](C(C)C)NC(=O)[C@H](CO)NC(=O)[C@H](C)NC(=O)[C@H](CO)NC1=O)C(=O)N[C@@H](CCCCN)C(=O)N[C@@H](CCC(N)=O)C(=O)N[C@@H](CCCCN)C(=O)N3)NC(=O)[C@H](CCCCN)NC(=O)[C@H](CCCCN)NC(=O)[C@H](CC(N)=O)NC(=O)[C@H](CCSC)NC2=O` [Compound 92] (H-S[Nle]D[Nle]RCSASVECKQKCLKAIGSIFGKCMNKKCKC[Phe(4-NO2)]PR-NH2; disulfide 6-27, 12-32, 16-34), for which the IC50 in experiment [1] amounted to 0.49 nM; on Rat whole blood (setting [2]), 1.3 nM.

Regarding `CCCC[C@H](NC(=O)[C@H](CC(=O)O)NC(=O)[C@H](CCCC)NC(=O)[C@@H](N)CO)C(=O)N[C@@H](CCCNC(=N)N)C(=O)N[C@H]1CSSC[C@@H]2NC(=O)[C@H](CCCCN)NC(=O)CNC(=O)[C@H](Cc3ccccc3)NC(=O)[C@H]([C@@H](C)CC)NC(=O)[C@H](CO)NC(=O)CNC(=O)[C@H]([C@@H](C)CC)NC(=O)[C@H](C)NC(=O)[C@H](CCCCN)NC(=O)[C@H](CC(C)C)NC(=O)[C@@H]3CSSC[C@@H](C(=O)N[C@@H](Cc4ccc(O)cc4)C(=O)N4CCC[C@H]4C(=O)N[C@@H](CCCNC(=N)N)C(N)=O)NC(=O)[C@H](CCCCN)NC(=O)[C@H](CSSC[C@H](NC(=O)[C@H](CCC(=O)O)NC(=O)[C@H](C(C)C)NC(=O)[C@H](CC)NC(=O)[C@H](C)NC(=O)[C@H](CO)NC1=O)C(=O)N[C@@H](CCCCN)C(=O)N[C@@H](CCC(N)=O)C(=O)N[C@@H](CCCCN)C(=O)N3)NC(=O)[C@H](CCCCN)NC(=O)[C@H](CCCCN)NC(=O)[C@H](CC(N)=O)NC(=O)[C@H](CCSC)NC2=O` [Compound 68] (H-S[Nle]D[Nle]RCSA[Abu]VECKQKCLKAIGSIFGKCMNKKCKCYPR-NH2; disulfide 6-27, 12-32, 16-34), the IC50 in experiment [1] was 0.2 nM; at Rat whole blood it was not above 1 nM; against Rat whole blood (setting [2]) it was 0.93 nM.

Regarding `CCCC[C@H](NC(=O)[C@@H]1CCCN1)C(=O)N[C@@H](CC(=O)O)C(=O)N[C@@H](CCCC)C(=O)N[C@@H](CCCNC(=N)N)C(=O)N[C@H]1CSSC[C@@H]2NC(=O)[C@H](CCCCN)NC(=O)CNC(=O)[C@H](Cc3ccccc3)NC(=O)[C@H]([C@@H](C)CC)NC(=O)[C@H](CO)NC(=O)CNC(=O)[C@H]([C@@H](C)CC)NC(=O)[C@H](C)NC(=O)[C@H](C)NC(=O)[C@H](CC(C)C)NC(=O)[C@@H]3CSSC[C@@H](C(=O)N[C@@H](Cc4ccc(O)cc4)C(=O)N4CCC[C@H]4C(=O)N[C@@H](CCCNC(=N)N)C(=O)O)NC(=O)[C@H](CCCCN)NC(=O)[C@H](CSSC[C@H](NC(=O)[C@H](CCC(=O)O)NC(=O)[C@H](C(C)C)NC(=O)[C@H](CO)NC(=O)[C@H](C)NC(=O)[C@H](CO)NC1=O)C(=O)N[C@@H](C)C(=O)N[C@@H](CCC(N)=O)C(=O)N[C@@H](CCCCN)C(=O)N3)NC(=O)[C@H](CCCCN)NC(=O)[C@H](CCCCN)NC(=O)[C@H](CC(N)=O)NC(=O)[C@H](CCSC)NC2=O` [Compound 102] (H-P[Nle]D[Nle]RCSASVECAQKCLAAIGSIFGKCMNKKCKCYPR-OH; disulfide 6-27, 12-32, 16-34), the IC50 in experiment [1] is 0.45 nM; at Rat whole blood it was not above 1 nM; on Rat whole blood (setting [2]) it was 0.32 nM.

In the case of `CCCC[C@@H]1NC(=O)[C@@H]2CSSC[C@H](NC(=O)[C@H](CCCNC(=N)N)NC(=O)[C@H](CCCC)NC(=O)[C@H](CC(=O)O)NC(=O)[C@H](CCCC)NC(=O)[C@@H](N)CO)C(=O)N[C@@H](CO)C(=O)N[C@@H](C)C(=O)N[C@@H](CO)C(=O)N[C@@H](C(C)C)C(=O)N[C@@H](CCC(=O)O)C(=O)N[C@H]3CSSC[C@H](NC(=O)[C@H](CCCCN)NC(=O)[C@H](CCCCN)NC(=O)[C@H](CC(N)=O)NC1=O)C(=O)N[C@@H](CCCCN)C(=O)N[C@H](C(=O)N[C@@H](Cc1ccc(O)cc1)C(=O)N1CCC[C@H]1C(=O)N[C@@H](CCCNC(=N)N)C(N)=O)CSSC[C@H](NC(=O)[C@H](CCCCN)NC(=O)[C@H](CCC(=O)O)NC(=O)[C@H](CCCCN)NC3=O)C(=O)N[C@@H](CC(C)C)C(=O)N[C@@H](CCC(N)=O)C(=O)N[C@@H](C)C(=O)N[C@@H]([C@@H](C)CC)C(=O)NCC(=O)N[C@@H](CO)C(=O)N[C@@H]([C@@H](C)CC)C(=O)N[C@@H](Cc1ccccc1)C(=O)NCC(=O)N[C@@H](CCCCN)C(=O)N2` [Compound 84] (H-S[Nle]D[Nle]RCSASVECKEKCLQAIGSIFGKC[Nle]NKKCKCYPR-NH2; disulfide 6-27, 12-32, 16-34), the values for the IC50 (in experiment [1]; at Rat whole blood; against Rat whole blood (setting [2])) were 0.084 nM, not above 1 nM and 0.69 nM, respectively.
